Read-outs that look alike come from different tables or passages of the source.
How the values were obtained:
[1] = molecular target: T1, NS3-NS4A protease (Hepatitis C virus genotype 1a, UniProt P27958); assay: NS3-NS4A protease assay (NS3 inhibition assay, RETS1 substrate), Section B; assay type: biochemical; details: read-out: NS3-NS4A IC50
T1 construct: Recombinant E. coli or Baculovirus full-length NS3 was diluted to 3.33 μM with assay buffer; made in house; host or cells: E. coli or baculovirus (BV) system
In short: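 Full-length NS3 (E. coli or baculovirus) precomplexed with excess NS4A-2 peptide, run at 2 nM (E. coli) or 3 nM (BV) NS3; compounds pre-incubated 10 min at room temperature before RETS1 substrate. Fluorescence (ex 335/em 495 nm) read kinetically 30 min; IC50 from four-parameter fit, converted to Ki via Ki=IC50/(1+[S]/Km).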

[2] = system: HCV sub-genomic replicon, GS4.3; assay: Quantitation by ELISA of NPTII in the HCV sub-genomic replicon, GS4.3, Section B; assay type: cell-based; details: Hepatitis C virus, read-out: Replicon EC50
In short: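 GS4.3 cells (HuH-7 carrying HCV 1377/NS3-3′ replicon) were treated 72 h at 37 °C with inhibitors in 3-fold dilutions, 1% DMSO, no G418. Lysate NPTII was measured by ELISA (TMB, 450 nm). Signal as % of DMSO control; EC50 from 4-parameter fit.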

T1 sequence (P27958 1027-1657): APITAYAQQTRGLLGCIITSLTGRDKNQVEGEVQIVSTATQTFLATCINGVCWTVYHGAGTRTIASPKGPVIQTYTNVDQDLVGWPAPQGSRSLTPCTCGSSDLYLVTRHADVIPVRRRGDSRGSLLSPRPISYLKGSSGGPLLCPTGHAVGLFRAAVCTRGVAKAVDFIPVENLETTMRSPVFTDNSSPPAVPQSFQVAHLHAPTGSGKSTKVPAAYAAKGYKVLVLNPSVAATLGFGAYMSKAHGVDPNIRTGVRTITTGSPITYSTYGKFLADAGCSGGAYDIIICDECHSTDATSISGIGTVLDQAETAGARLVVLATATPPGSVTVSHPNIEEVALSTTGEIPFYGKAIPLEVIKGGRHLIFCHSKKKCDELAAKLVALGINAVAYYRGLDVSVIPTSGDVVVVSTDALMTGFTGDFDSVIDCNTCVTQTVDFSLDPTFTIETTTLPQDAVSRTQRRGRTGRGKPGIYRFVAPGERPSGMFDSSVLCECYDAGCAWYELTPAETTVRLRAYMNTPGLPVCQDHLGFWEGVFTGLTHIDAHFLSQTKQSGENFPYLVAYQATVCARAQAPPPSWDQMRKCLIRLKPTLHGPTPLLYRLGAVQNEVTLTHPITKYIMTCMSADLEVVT

Row | SMILES | IC50 [1] [nM] | EC50 ([2]; GS4.3 cells, 72 h incubation) [nM] | EC50 ([2]; 72 h) [nM]
1 | CC(C)(C)OC(=O)N[C@H]1CCCCC/C=C\[C@@H]2C[C@@]2(C(=O)NS(=O)(=O)c2ccccc2)NC(=O)[C@@H]2C[C@@H](OC(=O)N3Cc4ccccc4C3)CN2C1=O [AR00333802, (1S,4R,6S,14S,18R)-1,3-Dihydro-isoindole-2-carboxylic acid 4-benzenesulfonylaminocarbonyl-14-tert-butoxycarbonylamino-2,15-dioxo-3,16-diaza-tricyclo[14.3.0.0^4,6]nonadec-7-en-18-yl ester] | < 100 | < 100 | 
2 | O=C(NC1CCCC1)N[C@H]1CCCCC/C=C\[C@@H]2C[C@@]2(C(=O)NS(=O)(=O)C2CC2)NC(=O)[C@@H]2C[C@@H](OC(=O)N3CCc4ccccc4C3)CN2C1=O [AR00320403, (1S,4R,6S,14S,18R)-3,4-Dihydro-1H-isoquinoline-2-carboxylic acid 14-(3-cyclopentyl-ureido)-4-cyclopropanesulfonylaminocarbonyl-2,15-dioxo-3,16-diaza-tricyclo[14.3.0.0^4,6]nonadec-7-en-18-yl ester] | < 100 | < 1000 | 
3 | CC(C)S(=O)(=O)NC(=O)[C@@]12C[C@H]1/C=C\CCCCC[C@H](NC(=O)OC(C)(C)C)C(=O)N1C[C@H](OC(=O)N3CCc4ccccc4C3)C[C@H]1C(=O)N2 [AR00261407, (1S,4R,6S,14S,18R)-3,4-Dihydro-1H-isoquinoline-2-carboxylic acid 14-tert-butoxycarbonylamino-2,15-dioxo-4-(propane-2-sulfonylaminocarbonyl)-3,16-diaza-tricyclo[14.3.0.0^4,6]nonadec-7-en-18-yl ester] | < 100 |  | < 1000
4 | C[C@H]1CN(C(=O)O[C@@H]2C[C@H]3C(=O)N[C@]4(C(=O)NS(=O)(=O)C5CC5)C[C@H]4/C=C\CCCCC[C@H](NC(=O)OC(C)(C)C)C(=O)N3C2)Cc2ccccc21 [AR00333462, (1S,4R,6S,14S,18R)-4R-Methyl-3,4-dihydro-1H-isoquinoline-2-carboxylic acid 14-tert-butoxycarbonylamino-4-cyclopropanesulfonylaminocarbonyl-2,15-dioxo-3,16-diaza-tricyclo[14.3.0.0^4,6]nonadec-7-en-18-yl ester] | < 100 | < 100 | 
5 | O=C(N[C@H]1CCCCC/C=C\[C@@H]2C[C@@]2(C(=O)O)NC(=O)[C@@H]2C[C@@H](OC(=O)N3Cc4ccccc4C3)CN2C1=O)O[C@H]1CCOC1 [AR00320075, (1S,4R,6S,14S,18R)-18-(1,3-Dihydro-isoindole-2-carbonyloxy)-2,15-dioxo-14-(tetrahydro-furan-3S-yloxycarbonylamino)-3,16-diaza-tricyclo[14.3.0.0^4,6]nonadec-7-ene-4-carboxylic acid] | < 1000 | < 10000 | 
6 | O=C(N[C@H]1CCCCC/C=C\[C@@H]2C[C@@]2(C(=O)O)NC(=O)[C@@H]2C[C@@H](OC(=O)N3CCc4ccccc4C3)CN2C1=O)OCCF [AR00304125, (1S,4R,6S,14S,18R)-18-(3,4-Dihydro-1H-isoquinoline-2-carbonyloxy)-14-(2-fluoro-ethoxycarbonylamino)-2,15-dioxo-3,16-diaza-tricyclo[14.3.0.0^4,6]nonadec-7-ene-4-carboxylic acid] | < 1000 | < 10000 | 
7 | CC(C)(C)NC(=O)N[C@H]1CCCCC/C=C\[C@@H]2C[C@@]2(C(=O)NS(=O)(=O)C2CC2)NC(=O)[C@@H]2C[C@@H](OC(=O)N3Cc4cc(Cl)c(Cl)cc4C3)CN2C1=O [AR00320447, (1S,4R,6S,14S,18R)-5,6-Dichloro-1,3-dihydro-isoindole-2-carboxylic acid 14-(3-tert-butyl-ureido)-4-cyclopropanesulfonylaminocarbonyl-2,15-dioxo-3,16-diaza-tricyclo[14.3.0.0^4,6]nonadec-7-en-18-yl ester] | < 100 | < 1000 | 
8 | CC(C)(C)NC(=O)N[C@H]1CCCCC/C=C\[C@@H]2C[C@@]2(C(=O)NS(=O)(=O)C2CC2)NC(=O)[C@@H]2C[C@@H](OC(=O)N3Cc4cccc(F)c4C3)CN2C1=O [AR00338066, (1S,4R,6S,14S,18R)-4-Fluoro-1,3-dihydro-isoindole-2-carboxylic acid 14-(3-tert-butyl-ureido)-4-cyclopropanesulfonylaminocarbonyl-2,15-dioxo-3,16-diaza-tricyclo[14.3.0.0^4,6]nonadec-7-en-18-yl ester] | < 100 | < 100 | 
9 | Cc1nc(-c2ccc3c(c2)CN(C(=O)O[C@@H]2C[C@H]4C(=O)N[C@]5(C(=O)NS(=O)(=O)C6CC6)C[C@H]5/C=C\CCCCC[C@H](NC(=O)OC(C)(C)C)C(=O)N4C2)C3)cs1 [AR00364989, (1S,4R,6S,14S,18R)-5-(2-Methyl-thiazol-4-yl)-1,3-dihydro-isoindole-2-carboxylic acid 14-tert-butoxycarbonylamino-4-cyclopropanesulfonylaminocarbonyl-2,15-dioxo-3,16-diaza-tricyclo[14.3.0.0^4,6]nonadec-7-en-18-yl ester] | < 100 | < 100 | 
10 | O=C(N[C@H]1CCCCC/C=C\[C@@H]2C[C@@]2(C(=O)NS(=O)(=O)C2CC2)NC(=O)[C@@H]2C[C@@H](OC(=O)N3Cc4ccc(Cl)cc4C3)CN2C1=O)OCCF [AR00334222, (1S,4R,6S,14S,18R)-5-Chloro-1,3-dihydro-isoindole-2-carboxylic acid 4-cyclopropanesulfonylaminocarbonyl-14-(2-fluoro-ethoxycarbonylamino)-2,15-dioxo-3,16-diaza-tricyclo[14.3.0.0^4,6]nonadec-7-en-18-yl ester] | < 100 | < 100 | 
11 | CC(C)(C)OC(=O)N[C@H]1CCCCC/C=C\[C@@H]2C[C@@]2(C(=O)NS(=O)(=O)c2cc(C(=O)O)c(Cl)cc2F)NC(=O)[C@@H]2C[C@@H](OC(=O)N3Cc4ccccc4C3)CN2C1=O [AR00365426, (1S,4R,6S,14S,18R)-1,3-Dihydro-isoindole-2-carboxylic acid 14-tert-butoxycarbonylamino-4-(5-carboxy-4-chloro-2-fluoro-benzenesulfonylaminocarbonyl)-2,15-dioxo-3,16-diaza-tricyclo[14.3.0.0^4,6]nonadec-7-en-18-yl ester] | < 100 | < 10000 | 
12 | COc1ccc(S(=O)(=O)NC(=O)[C@@]23C[C@H]2/C=C\CCCCC[C@H](NC(=O)OC(C)(C)C)C(=O)N2C[C@H](OC(=O)N4CCc5ccccc5C4)C[C@H]2C(=O)N3)cc1 [AR00320548, (1S,4R,6S,14S,18R)-3,4-Dihydro-1H-isoquinoline-2-carboxylic acid 14-tert-butoxycarbonylamino-4-(4-methoxy-benzenesulfonylaminocarbonyl)-2,15-dioxo-3,16-diaza-tricyclo[14.3.0.0^4,6]nonadec-7-en-18-yl ester] | < 100 |  | < 100
13 | O=C(CC1CCCC1)N[C@H]1CCCCC/C=C\[C@@H]2C[C@@]2(C(=O)NS(=O)(=O)C2CC2)NC(=O)[C@@H]2C[C@@H](OC(=O)N3Cc4ccc(Cl)cc4C3)CN2C1=O [AR00334226, (1S,4R,6S,14S,18R)-5-Chloro-1,3-dihydro-isoindole-2-carboxylic acid 14-(2-cyclopentyl-acetylamino)-4-cyclopropanesulfonylaminocarbonyl-2,15-dioxo-3,16-diaza-tricyclo[14.3.0.0^4,6]nonadec-7-en-18-yl ester] | < 100 | < 100 | 
14 | CC(C)(C)OC(=O)N[C@H]1CCCCC/C=C\[C@@H]2C[C@@]2(C(=O)NS(=O)(=O)C2CC2)NC(=O)[C@@H]2C[C@@H](OC(=O)N3Cc4ccc(N5CCOCC5)cc4C3)CN2C1=O [AR00340494, (1S,4R,6S,14S,18R)-5-Morpholin-4-yl-1,3-dihydro-isoindole-2-carboxylic acid 14-tert-butoxycarbonylamino-4-cyclopropanesulfonylaminocarbonyl-2,15-dioxo-3,16-diaza-tricyclo[14.3.0.0^4,6]nonadec-7-en-18-yl ester] | < 100 | < 100 | 
15 | O=C(N[C@H]1CCCCC/C=C\[C@@H]2C[C@@]2(C(=O)NS(=O)(=O)C2CC2)NC(=O)[C@@H]2C[C@@H](OC(=O)N3CCc4ccccc4C3)CN2C1=O)OCC(F)F [AR00320579, (1S,4R,6S,14S,18R)-3,4-Dihydro-1H-isoquinoline-2-carboxylic acid 4-cyclopropanesulfonylaminocarbonyl-14-(2,2-difluoro-ethoxycarbonylamino)-2,15-dioxo-3,16-diaza-tricyclo[14.3.0.0^4,6]nonadec-7-en-18-yl ester] | < 100 | < 100 | 
16 | CC(C)(C)OC(=O)N[C@H]1CCCCC/C=C\[C@@H]2C[C@@]2(C(=O)NS(=O)(=O)c2ccccc2)NC(=O)[C@@H]2C[C@@H](OC(=O)N3CCc4ccccc4C3)CN2C1=O [AR00320547, (1S,4R,6S,14S,18R)-3,4-Dihydro-1H-isoquinoline-2-carboxylic acid 4-benzenesulfonylaminocarbonyl-14-tert-butoxycarbonylamino-2,15-dioxo-3,16-diaza-tricyclo[14.3.0.0^4,6]nonadec-7-en-18-yl ester] | < 100 | < 100 | 
17 | O=C(N[C@H]1CCCCC/C=C\[C@@H]2C[C@@]2(C(=O)O)NC(=O)[C@@H]2C[C@@H](OC(=O)N3CCc4ccccc4C3)CN2C1=O)OC1CCOCC1 [AR00320002, (1S,4R,6S,14S,18R)-18-(3,4-Dihydro-1H-isoquinoline-2-carbonyloxy)-2,15-dioxo-14-(tetrahydro-pyran-4-yloxycarbonylamino)-3,16-diaza-tricyclo[14.3.0.0^4,6]nonadec-7-ene-4-carboxylic acid] | < 1000 | < 10000 | 

Source: patent US7491794B2, “Macrocyclic compounds as inhibitors of viral replication” (Intermune, Inc., priority 2003, dated 2009)
